Reference: patent US12258554B2 (priority 2014, dated 2025)
“And” between values parts separate entries of the source, which are not always exact repeats. Equal values may be shown once. Read-outs that look alike come from different tables or passages of the source. Where a SMILES comes first, the peptide text is derived from it. Bridges are numbered along the chain shown (N, C = ends). [ ]: non-standard residue; d: D form. The star is where a group is joined. ξ: configuration not given here. Pentadecanoyl(3ξ-OH,15-Gua) = N=C(N)NCCCCCCCCCCCCC(O)CC(=O)*; d(aThr) = C[C@@H](O)[C@@H](N)C(=O)O; Thr(3ξ) = CC(O)[C@H](N)C(=O)O; ξY = NC(Cc1ccc(O)cc1)C(=O)O

What was measured:
[1] = test system: Fusarium graminearum (GIBBZE); type: in vivo; details: for % efficacy (% fungal attack): head blight on wheat, protective application, metabolite conc. 360 ppm, visually assessed 5-7 days after inoculation
[2] = test system: Alternaria solani (ALTESO); experiment: Fungal growth assay in 96 well plates; type: cell-based; details: OD 600 nm, YBG, about 18° C.
Experimental: (§1) Fungal growth assays were performed in 96 well plates with spore suspension of the pathogen Botrytis cinerea (BOTRCI, in YBA [10 g Bacto peptone (Becton Dickinson 211677), 10 g yeast extract (Becton Dickinson 212750), 20 g sodium acetate, ad 1000 mL aqua bidest] or Alternaria solani (ALTESO, in YBG [10 g Bacto peptone (Becton Dickinson 211677), 10 g yeast extract (Becton Dickinson 212750), 20 g glycerine 99%, ad 1000 mL aqua bidest]). Fusaricidins and compounds 1A and 1B were dissolved and diluted in DMSO. Different concentrations ranging from 60 μM down to 0.3 μM were pipetted into the microtiter plate. An aqueous suspension of 10^4 spores/ml was added. The plates were incubated at about 18° C. Fungal growth was determined by measuring the optical density at 600 nm in a microplate reader 3 and 7 days after the inoculation of the spores and compared to the untreated control (DMSO). IC50 (concentration [μM] of the respective metabolite required for 50% inhibition of fungal growth) has been determined thereafter.

[3] = test system: Botrytis cinerea (BOTRCI); experiment: Fungal growth assay in 96 well plates; type: cell-based; details: evaluation 7 d after inoculation, OD 600 nm, YBA, about 18° C.; read-out: Fungal growth inhibition (IC50) BOTRCI (7d)
Experimental: as §1

[4] = test system: Phytophthora infestans (PHYTIN); type: in vivo; details: for % efficacy (% fungal attack): late blight on tomato, protective application, metabolite conc. 7.2 ppm, visually assessed 5-7 days after inoculation; for % efficacy PHYTIN: in planta, 360 ppm, assessed 5-7 days after inoculation
[5] = test system: important fungal diseases on crop plants; type: in vivo; details: metabolites; for controlling important fungal diseases on crop plants: dose levels as low as 7.2 ppm; for antifungal efficacy compared with Fusaricidin A, B and D: glasshouse trials
[6] = test system: Botrytis cinerea (BOTRCI); details: in vivo
[7] = test system: Phakopsora pachyrhizi (PHAKPA); details: in vivo
[8] = test system: Alternaria solani (ALTESO); details: in vivo
[9] = test system: Septoria tritici (SEPTTR); experiment: Glasshouse test, speckled leaf blotch on wheat, protective application; type: in vivo; details: metabolite conc. 360 ppm
Experimental: Commercially available young wheat seedlings were used for the described greenhouse trial. 2 replications (pots with 1 plant each) were used per treatment. Plants were grown in commercially available substrate (Universal, Floragard) at approx. 22° C. in the greenhouse. The humidity was controlled using a special device (˜90% humidity). The plants were sprayed to runoff with crude culture broth of 2-6 days old cultures of Paenibacillus spp. (depending on the setup) using a spray cabinet. Culture conditions are described in Example 3. One day after application the treated plants were inoculated with a suspension of spores of Septoria tritici (SEPTTR). After inoculation, the trial plants were immediately transferred to a humid chamber. The extent of fungal attack on the leaves was visually assessed 21-28 days after inoculation.

[10] = test system: clinically relevant fungi and gram-positive bacteria such a Staphylococcus aureus; details: ChemMedChem 7, 871-882, 2012; cited from earlier work
[11] = evaluation 3 d after inoculation, read-out: Fungal growth inhibition (IC50) ALTESO (3 d)
[12] = evaluation 7 d after inoculation, read-out: Fungal growth inhibition (IC50) ALTESO (7 d)

| SMILES | % efficacy (% fungal attack) [1] [%] | IC50 [2, 11] [nM] | IC50 [2, 12] [nM] | IC50 [3] [nM] | % efficacy (% fungal attack) [4] [%] | controlling important fungal diseases on crop plants [5] | antifungal efficacy compared with Fusaricidin A, B and D [5] | % efficacy GIBBZE ([1]; in planta, 360 ppm, assessed 5-7 days after inoculation) [%] | % efficacy BOTRCI [6] | % efficacy PHAKPA [7] [%] | % efficacy ALTESO [8] [%] | % efficacy PHYTIN [4] [%] | % efficacy (% fungal attack) [9] [%] | MIC value range [10] [µg/mL] |
| --- | --- | --- | --- | --- | --- | --- | --- | --- | --- | --- | --- | --- | --- | --- |
| CC(C)[C@@H]1NC(=O)[C@@H](C(C)C)NC(=O)[C@@H](NC(=O)CC(O)CCCCCCCCCCCCN=C(N)N)C(C)OC(=O)[C@@H](C)NC(=O)[C@@H](CCC(N)=O)NC(=O)[C@@H]([C@H](C)O)NC1=O (stereo in doubt) [Compound 5B, fusaricidin B] | 0 | 1100 | 600 | 600 | 4 |  |  |  |  |  |  |  |  |  |
| CCC(C)C1NC(=O)C(NC(=O)CC(O)CCCCCCCCCCCCNC(=N)N)C(C)OC(=O)C(C)NC(=O)C(CC(N)=O)NC(=O)C(C(C)O)NC(=O)C(Cc2ccc(O)cc2)NC1=O (stereo not shown) [Compound 1A] ({Pentadecanoyl(3ξ-OH,15-Gua)}-TIYTNA; ester 1-C; configuration not given here) | 49 | 600 | 500 | 300 |  | effective | higher antifungal efficacy than Fusaricidin A, B and D | 49 | 99% and 97% | 95 | 74 | 100 |  |  |
| CCC(C)C1NC(=O)C(NC(=O)CC(O)CCCCCCCCCCCCNC(=N)N)C(C)OC(=O)C(C)NC(=O)C(CCC(N)=O)NC(=O)C(C(C)O)NC(=O)C(Cc2ccc(O)cc2)NC1=O (stereo not shown) [Compound 1B] ({Pentadecanoyl(3ξ-OH,15-Gua)}-TIYTQA; ester 1-C; configuration not given here) |  | 600 | 400 | 400 | 44 | effective | higher antifungal efficacy than Fusaricidin A, B and D |  | 97% and 100% | 97 |  | 100 | 80 |  |
| CC1OC(=O)[C@@H](C)NC(=O)[C@@H](CCC(N)=O)NC(=O)[C@@H]([C@H](C)O)NC(=O)C(Cc2ccc(O)cc2)NC(=O)[C@@H](C(C)C)NC(=O)[C@H]1NC(=O)CC(O)CCCCCCCCCCCCN=C(N)N (stereo partly shown) [Compound 2B, fusaricidin D] ({Pentadecanoyl(3ξ-OH,15-Gua)}-[Thr(3ξ)][dV][ξY][dT][dQ][dA]; ester 1-C) |  | 1100 | 600 | 500 | 0 |  |  |  |  |  |  |  | 50 |  |
| CC(C)[C@@H]1NC(=O)[C@@H](C(C)C)NC(=O)[C@@H](NC(=O)CC(O)CCCCCCCCCCCCN=C(N)N)[C@@H](C)OC(=O)[C@@H](C)NC(=O)[C@@H](CC(N)=O)NC(=O)[C@@H]([C@@H](C)O)NC1=O (stereo partly shown) [Compound 5A, fusaricidin A] ({Pentadecanoyl(3ξ-OH,15-Gua)}-T[dV]V[d(aThr)][dN][dA]; ester 1-C) | 31 | 1300 | 700 | 500 | 15 |  |  |  |  |  |  |  |  | 0.78 to 3.12 |
